We go through eight compounds from ChEMBL document CHEMBL4680276, “Structure-Activity Relationships of Daptomycin Lipopeptides” (2020).

Converted amounts (≈) assume the structure as drawn.

Assay type in all cases: functional
Experiment [1] relates to Bacillus subtilis. As to the kind of experiment: Antibacterial activity against Bacillus subtilis PY79 incubated for 18 hrs in presence of 73.6 mg/L Ca2+ by visual method.
A short description of experiment [2]: Antibacterial activity against Streptomyces sp. WAC4713 measured up to 55 hrs. Conditions: Streptomyces sp. WAC4713, 55 h; time hrs <=55.
Experiment [3] has as its system Bacillus subtilis. The experiment is described as follows: Antibacterial activity against Bacillus subtilis ATCC1046 in presence of 1.25 mM Ca2+ by serial dilution method. The settings on record: time 18 hrs.
The subject of a further experiment is Staphylococcus aureus. The experiment is described as follows: Antibacterial activity against Staphylococcus aureus ATCC 29213 incubated for 12 hrs in presence of 1.25 mM Ca2+ by broth microdilution method. (In broth dilution the organism is exposed to a series of concentrations in liquid medium.)

Consider `CCCCCCCCCC(=O)N[C@@H](Cc1c[nH]c2ccccc12)C(=O)N[C@H](CC(N)=O)C(=O)N[C@@H](CC(=O)O)C(=O)N[C@@H]1C(=O)NCC(=O)N[C@@H](CCCN)C(=O)N[C@@H](CC(=O)O)C(=O)N[C@H](C)C(=O)N[C@@H](CC(=O)O)C(=O)NCC(=O)N[C@H](CO)C(=O)N[C@@H]([C@H](C)CC(=O)O)C(=O)N[C@@H](CC(=O)c2ccccc2N)C(=O)O[C@@H]1C`, for which the MIC90 in the experiment with Bacillus subtilis [1] amounted to 2 mg/L. For the same compound, the minimal inhibitory concentration (MIC) in experiment [2] stood at 512 mg/L (≈ 316 µM). Turning to `CCCCCCCCCC(=O)N[C@@H](Cc1c[nH]c2ccccc12)C(=O)N[C@H](CC(N)=O)C(=O)N[C@@H](CC(N)=O)C(=O)N[C@@H]1C(=O)NCC(=O)N[C@@H](CCCCN)C(=O)N[C@@H](CC(=O)O)C(=O)N[C@H](C)C(=O)N[C@@H](CC(=O)O)C(=O)NCC(=O)N[C@H](CO)C(=O)N[C@@H](CCC(=O)O)C(=O)N[C@@H](Cc2c[nH]c3ccccc23)C(=O)O[C@@H]1C`, the minimum inhibitory concentration (MIC) with Bacillus subtilis [3] was 1.5 mg/L.

For `CCCCCCCCCC(=O)N[C@@H](Cc1c[nH]c2ccccc12)C(=O)N[C@H](CC(=O)O)C(=O)N[C@@H](CC(N)=O)C(=O)N[C@@H]1C(=O)N(C)CC(=O)N[C@@H](CCCN)C(=O)N[C@@H](CC(=O)O)C(=O)N[C@H](C)C(=O)N[C@@H](CC(=O)O)C(=O)NCC(=O)N[C@H](CO)C(=O)N[C@@H](CCC(=O)O)C(=O)N[C@@H](CC(=O)c2ccccc2N)C(=O)O[C@@H]1C`, the MIC90 with Bacillus subtilis [1] was 20 mg/L.

As for `CCCCCCCCCC(=O)N[C@@H](Cc1c[nH]c2ccccc12)C(=O)N[C@H](CCC(=O)O)C(=O)N[C@@H](CC(N)=O)C(=O)N[C@@H]1C(=O)N(C)CC(=O)N[C@@H](C)C(=O)N[C@@H](CC(=O)O)C(=O)N[C@H](CCCCN)C(=O)N[C@@H](CC(=O)O)C(=O)NCC(=O)N[C@H](CC(N)=O)C(=O)N[C@@H](CCC(=O)O)C(=O)N[C@@H]([C@@H](C)CC)C(=O)O[C@@H]1C`, the MIC90 in the experiment with Bacillus subtilis [1] amounted to 25 mg/L. On the same count and under the same terms, the same measure for `CCCCCCCCCC(=O)N[C@@H](Cc1c[nH]c2ccccc12)C(=O)N[C@H](CCC(=O)O)C(=O)N[C@@H](CC(N)=O)C(=O)N[C@H]1COC(=O)[C@H]([C@@H](C)CC)NC(=O)[C@H](CCC(=O)O)NC(=O)[C@@H](CC(N)=O)NC(=O)CNC(=O)[C@H](CC(=O)O)NC(=O)[C@@H](CCCCN)NC(=O)[C@H](CC(=O)O)NC(=O)[C@H](C)NC(=O)CN(C)C1=O`: 25 mg/L; for `CCCCCCCCCC(=O)N[C@@H](Cc1c[nH]c2ccccc12)C(=O)N[C@H](CC(=O)O)C(=O)N[C@@H](CC(N)=O)C(=O)N[C@@H]1C(=O)N(C)CC(=O)N[C@@H](C)C(=O)N[C@@H](CC(=O)O)C(=O)N[C@H](C)C(=O)N[C@@H](CC(=O)O)C(=O)NCC(=O)N[C@H](CO)C(=O)N[C@@H](CCC(=O)O)C(=O)N[C@@H](CC(=O)c2ccccc2N)C(=O)O[C@@H]1C`: 20 mg/L. `CCCCCCCCCC(=O)N[C@@H](Cc1c[nH]c2ccccc12)C(=O)N[C@H](CC(N)=O)C(=O)N[C@@H](CC(=O)O)C(=O)N[C@@H]1C(=O)NCC(=O)N[C@@H](CCCCN)C(=O)N[C@@H](CC(=O)O)C(=O)N[C@H](C)C(=O)N[C@@H](CC(=O)O)C(=O)NCC(=O)N[C@H](CO)C(=O)N[C@@H](CCC(=O)O)C(=O)N[C@@H](CC(=O)c2ccccc2N)C(=O)O[C@@H]1C`: in the experiment with Staphylococcus aureus, the MIC amounted to 64 mg/L. As to `CCCCCCCCCC(=O)N[C@@H](Cc1c[nH]c2ccccc12)C(=O)N[C@@H](CC(N)=O)C(=O)N[C@@H](CC(=O)O)C(=O)N[C@@H]1C(=O)NCC(=O)N[C@@H](CCCN)C(=O)N[C@@H](CC(=O)O)C(=O)N[C@H](C)C(=O)N[C@@H](CC(=O)O)C(=O)NCC(=O)N[C@H](CO)C(=O)N[C@H](CCC(=O)O)C(=O)N[C@@H](CC(=O)c2ccccc2N)C(=O)O[C@@H]1C`, the MIC90 in the experiment on Bacillus subtilis [1] was found to be 11 mg/L.

The MIC90 is an inhibitory concentration at the 90% level, which refers to growth in some studies and to a panel of isolates in others. A word on the MIC: it is the lowest concentration found to suppress growth.
